According to ChEMBL document CHEMBL1148243, “Indoline derivatives as 5-HT(2C) receptor agonists” (Bioorg Med Chem Lett, 2004):

Key:
[1] = biological target: T1, 5-hydroxytryptamine receptor 2A (Homo sapiens, UniProt P28223); assay: Functional activity against human 5-hydroxytryptamine 2A receptor expressed in CHO cells using fluorometric imaging plate reader; assay type: cell-based
[2] = biological target: T1, 5-hydroxytryptamine receptor 2A; assay: Affinity for human 5-hydroxytryptamine 2A receptor expressed in mammalian cell line
[3] = biological target: T2, 5-hydroxytryptamine receptor 2B (Homo sapiens, UniProt P41595); assay: Functional activity against human 5-hydroxytryptamine 2B receptor expressed in CHO cells using fluorometric imaging plate reader; assay type: cell-based
[4] = biological target: T1, 5-hydroxytryptamine receptor 2A; assay: Relative efficacy against human 5-hydroxytryptamine 2A receptor expressed in CHO cells using fluorometric imaging plate reader relative to 10 uM 5-HT; assay type: functional, cell-based
[5] = biological target: T2, 5-hydroxytryptamine receptor 2B; assay: Affinity for human 5-hydroxytryptamine 2B receptor expressed in mammalian cell line
[6] = biological target: T2, 5-hydroxytryptamine receptor 2B; assay: Relative efficacy against human 5-hydroxytryptamine 2B receptor expressed in CHO cells using fluorometric imaging plate reader relative to 10 uM 5-HT; assay type: functional, cell-based
[7] = biological target: T3, 5-hydroxytryptamine receptor 2C (Homo sapiens, UniProt P28335); assay: Functional activity against human 5-hydroxytryptamine 2C receptor expressed in CHO cells using fluorometric imaging plate reader; assay type: cell-based
T3 sequence (P28335 whole entry): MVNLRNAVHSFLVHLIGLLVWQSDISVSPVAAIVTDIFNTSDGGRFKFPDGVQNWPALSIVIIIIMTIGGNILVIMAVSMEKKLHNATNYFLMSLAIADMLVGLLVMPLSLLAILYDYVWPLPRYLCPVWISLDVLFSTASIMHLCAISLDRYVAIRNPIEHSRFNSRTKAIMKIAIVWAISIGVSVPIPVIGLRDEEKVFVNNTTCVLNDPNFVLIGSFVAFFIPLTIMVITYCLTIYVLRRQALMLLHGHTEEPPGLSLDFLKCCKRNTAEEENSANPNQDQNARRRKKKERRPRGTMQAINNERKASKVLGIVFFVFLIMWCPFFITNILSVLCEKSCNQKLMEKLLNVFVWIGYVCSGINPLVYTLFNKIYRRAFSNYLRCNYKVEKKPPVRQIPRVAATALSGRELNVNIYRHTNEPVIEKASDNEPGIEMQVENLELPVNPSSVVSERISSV

[8] = biological target: T3, 5-hydroxytryptamine receptor 2C; assay: Affinity for human 5-hydroxytryptamine 2C receptor expressed in mammalian cell line
Rattus norvegicus [9] = assay: Ability of compound to decrease food intake in rats after oral administration; assay type: functional; conditions: read-out: MED
Rattus norvegicus [10] = assay: Ability of compound to decrease food intake in rats after subcutaneous administration; assay type: functional; conditions: sc, read-out: MED

T2 sequence (P41595 whole entry): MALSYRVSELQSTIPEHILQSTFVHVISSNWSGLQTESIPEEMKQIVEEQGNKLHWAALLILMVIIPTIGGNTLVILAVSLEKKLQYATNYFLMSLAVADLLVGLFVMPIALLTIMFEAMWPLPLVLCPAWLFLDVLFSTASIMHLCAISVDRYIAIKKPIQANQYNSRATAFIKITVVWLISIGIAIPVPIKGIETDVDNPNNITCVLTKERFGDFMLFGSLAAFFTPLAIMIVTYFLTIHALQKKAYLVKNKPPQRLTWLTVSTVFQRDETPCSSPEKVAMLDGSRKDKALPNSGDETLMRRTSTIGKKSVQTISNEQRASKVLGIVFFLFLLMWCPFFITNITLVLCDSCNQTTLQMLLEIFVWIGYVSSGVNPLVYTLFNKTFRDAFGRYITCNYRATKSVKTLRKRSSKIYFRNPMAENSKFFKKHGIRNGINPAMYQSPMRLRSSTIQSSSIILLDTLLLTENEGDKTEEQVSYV
T1 sequence (P28223 whole entry): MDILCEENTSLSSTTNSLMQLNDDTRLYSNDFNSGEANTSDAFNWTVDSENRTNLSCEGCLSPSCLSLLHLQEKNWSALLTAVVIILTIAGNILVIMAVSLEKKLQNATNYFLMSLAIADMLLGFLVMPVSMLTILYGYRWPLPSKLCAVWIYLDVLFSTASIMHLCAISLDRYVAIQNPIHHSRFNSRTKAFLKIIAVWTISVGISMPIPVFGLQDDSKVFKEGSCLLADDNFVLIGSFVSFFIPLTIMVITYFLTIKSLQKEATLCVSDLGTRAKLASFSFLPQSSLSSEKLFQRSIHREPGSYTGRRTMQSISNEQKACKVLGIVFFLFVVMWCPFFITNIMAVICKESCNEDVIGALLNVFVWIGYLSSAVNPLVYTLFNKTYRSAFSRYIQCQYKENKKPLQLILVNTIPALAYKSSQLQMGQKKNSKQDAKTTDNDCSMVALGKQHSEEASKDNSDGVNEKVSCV

Row | SMILES | EC50 [1] [nM] | Ki [2] [nM] | EC50 [3] [nM] | Relative efficacy [4] [%] | Ki [5] [nM] | Relative efficacy [6] [%] | EC50 [7] [nM] | Ki [8] [nM] | minimal effective dose (Rattus norvegicus [9]) [mg/kg] | minimal effective dose (Rattus norvegicus [10]) [mg/kg]
1 | C[C@H](N)CN1CCc2ccc3c(c21)CCO3 | 62 | 112 | 3 | 81 | 49 | 74 | 4.5 | 8.7 | 1 | 0.1
2 | C[C@H](N)CN1CCc2cc(F)c(I)cc21 | 432 | 139 | 22 | 54 | 38 | 71 | 64 | 17 |  | 
3 | CSc1ccc2c(c1)N(C[C@H](C)N)CC2 | 164 | 171 | 10 | 72 | 89 | 78 | 26 | 5.7 |  | 
4 | C[C@H](N)CN1CCc2ccc(Cl)cc21 | 602 | 364 | 6.5 | 55 | 54 | 76 | 44 | 13 |  | 
5 | CCSc1ccc2c(c1)N(C[C@H](C)N)CC2 | 378 | 184 | 72 | 71 | 189 | 67 | 40 | 16 |  | 
6 | CSc1cc2c(cc1F)CCN2C[C@H](C)N | 76 | 53 | 4.1 | 87 | 21 | 72 | 6.7 | 3.2 | 3 | 0.3
7 | C[C@H](N)CN1CCc2cc(F)c(Cl)cc21 | 367 | 167 | 7.3 | 66 | 31 | 77 | 31 | 14 |  | 
8 | CCSc1cc2c(cc1F)CCN2C[C@H](C)N | 181 | 58 | 31 | 80 | 62 | 66 | 21 | 6.4 |  | 
9 | C[C@H](N)CN1CCc2cc(F)c(C(F)(F)F)cc21 | 1060 | 432 | 49 | 45 | 88 | 86 | 130 | 26 |  | 
10 | C[C@H](N)CN1CCc2ccc3c(c21)CCCO3 | 125 | 395 | 36 | 71 | 355 | 67 | 28 | 38 |  | 
11 | C[C@H](N)Cn1ccc2cc(F)c(Cl)cc21 |  | 38 | 4.3 | 72 | 5.1 | 71 | 18 | 2.3 |  | 
12 | Clc1cccc(N2CCNCC2)c1 [CHLOROPHENYLPIPERAZINE] |  |  |  |  |  |  |  |  | 10 | 1
13 | C[C@H](N)CN1CCc2ccc(Br)cc21 | 719 | 351 | 11 | 54 | 46 | 78 | 44 | 24 | 30 | 3
